# Peptide text beside a SMILES is read from it. * marks the point of attachment. Cbz = O=C(OCc1ccccc1)*
# How the values were obtained:
# 22Rv1 cells = experiment: Proliferation assay (CellTiter Glo); type: cell-based, human; conditions: 72 h
# Procedure: Cells were seeded at 5000 cells per well (50 μL medium) in 96-well flat bottom white wall plates. After 24 h, 50 μL of medium containing DMSO or compound dilutions (2× final concentration from 1000× stocks) were added to the wells. At the time of compound addition, a reference plate to determine the cell population density at time 0 (TO) was assayed using CellTiter Glo reagent (50 μL added to each well). After 72 h in culture, the remaining plates were assayed using CellTiter Glo. After 30 min of shaking at room temperature, luminescence was analyzed using a CLARIOstar (BMG Labtech) plate reader. Raw values were normalized using GraphPad PRISM software version 9.0.0. Lines of best fit were generated using a four-parameter variable slope least squares regression.
# [1] = system: mRNA splicing in 22Rv1 cells; experiment: RNA sequencing, alternative splicing (rMATS); type: cell-based, human; conditions: 8 hr, RNA-seq
# Procedure: RNA sequencing libraries were prepared using the NEBNext Ultra II RNA Library Prep Kit for Illumina following manufacturer's instructions (NEB, Ipswich, MA, USA). mRNAs were first enriched with Oligo(dT) beads. Enriched mRNAs were fragmented for 15 minutes at 94° C. First strand and second strand cDNAs were subsequently synthesized. cDNA fragments were end repaired and adenylated at 3′ends, and universal adapters were ligated to cDNA fragments, followed by index addition and library enrichment by limited-cycle PCR. The sequencing libraries were validated on the Agilent TapeStation (Agilent Technologies, Palo Alto, CA, USA), and quantified by using Qubit 2.0 Fluorometer (Invitrogen, Carlsbad, CA) as well as by quantitative PCR (KAPA Biosystems, Wilmington, MA, USA). FASTQ files were first trimmed using Trim_galore (v0.6.4) to remove sequencing adapters and low quality (Q<15) reads. Trimmed sequencing reads were aligned to the human Hg19 reference genome (GENCODE, GRCh37.p13) using STAR (v2.7.5). SAM files were subsequently converted to BAM files, sorted, and indexed using samtools (v1.9). […] Read counting across genomic features was performed using featureCounts (part of the subread package; v1.5.0) using the following parameters: -p -T 20 -O -F GTF -t exon. […]
# For quantification of alternative RNA splicing, BAM files generated by STAR/Samtools were analyzed using rMATS (v4.1.1) using the GENCODE (v19) GTF annotation for Hg19 (GRCh37.p13) and the following parameters: -t paired --libType fr-unstranded—readLength 150—novelSS. To utilize reads shorted than 150b.p. resulting from adapter and/or QC trimming by trim_galore, rMATS was programmed to accept soft-clipped reads of variable length. Enumeration of isoform counts was performed using only reads that span the splice junction directly. To identify high confidence AS events, events were considered significant if (i) the inclusion level difference was greater than 20% compared to DMSO, (ii) the False Discovery Rate (FDR) was smaller than 0.05, and (iii) there were a minimum of 20 reads mapping to the splice junction. […]
# [2] = system: SF3B1 interacting proteins; experiment: SF3B1 co-immunoprecipitation-MS; type: cell-based, human; conditions: HEK293T cells, 5 μM WX-02-23 or 10 nM pladienolide B, 3 h
# Procedure: HEK293T cells were treated in situ with DMSO, 5 μM of WX-02-23/WX-02-43, or 10 nM pladienolide B for 3 hours. Cells were harvested, washed with ice-cold PBS, and lysed in ColP lysis buffer (0.5% NP-40, 100 mM EPPS, 150 mM NaCl, cOmplete protease inhibitor). Lysates centrifuged at 16,000 g for 3 minutes, normalized to 2.0 mg/mL and 500 μL of each lysate was aliquoted to a clean eppendorf tube.
# Lysates were incubated with 5 μL of anti-IgG or anti-SF3B1 (CST) for 2 hours at 4 C, followed by 1 hour with 25 μL of protein-A agarose beads. Bead were washed twice with ColP lysis buffer, and then twice with 100 mM EPPS, followed by elution with 8 M urea in EPPS at 65 C for 10 min. […] Samples were then trypsinized at 37 C overnight (2 ug of trypsin per sample), then TMT labeled and desalted.
# p27 = experiment: anti-p27 western blot; type: cell-based, human; conditions: 22Rv1 cells, 24 h
# [3] = biological target: T1, recombinant FLAG-PSME1 (PSME1_C22) (Homo sapiens, UniProt Q06323); experiment: Gel-based ABPP for PSME1 cysteine engagement; type: binding; conditions: HEK293T lysates, WT or C22A FLAG-PSME1, 2.5 μM, 30 min
# T1 construct: FLAG (C); expressed in transfected cells; host or cells: HEK293T (lysate treated in vitro)
# Procedure: C-terminally FLAG-tagged PSME1 WT or C22A were transiently expressed in HEK293T cells, harvested 48 hours later, then cells were divided into aliquots, flash frozen and stored at −80 C. On the day of the experiment, an aliquot of cells were thawed, lysed by sonication in ice-cold PBS supplemented with cOmplete protease inhibitors (1 tablet/10 mL of PBS). normalized to 2.0 mg/mL, and divided into 25 μL aliquots. 1 μL of DMSO or compound (25× stock) was incubated with lysates for 1.5 hours at RT, followed by incubation with 1 μL of 62.5 μM MY-11B click probe (final concentration […]) for an additional 30 minutes. Reagents for the CuAAC click reaction were pre-mixed prior to addition to the samples. After 1 hour of click labeling, 4×SDS running buffer was added to samples, which were then analyzed by SDS-PAGE. ImageJ was used to quantify rhodamine band intensities, and GraphPad PRISM Version 9.0.0 was used to generate IC50 curves (four-parameter variable slope least squares regression).
# SF3B1 (~150 kDa protein) = biological target: T2, SF3B1 (~150 kDa protein) (Homo sapiens, UniProt O75533+Q7RTV0); experiment: Gel-based ABPP for SF3B1 cysteine engagement; type: binding; conditions: 22Rv1 cells, 1 μM alkyne probe, 1 h
# T2 construct: Cysteine engagement data from 22Rv1 cells treated; endogenous in cells; host or cells: 22Rv1
# Procedure: 22Rv1 cells were treated with indicated compounds for 24 h, chased with click probe for 1 h in situ, harvested and lysed in PBS with protease inhibitors (cOmplete), and then normalized to 2.0 mg/mL. Reagents for the CuAAC click reaction were pre-mixed prior to addition to the samples (3 μL of click reaction mix for 25 μL of lysate). After 1 hour of click labeling, 4×SDS running buffer was added to samples, which were then analyzed by SDS-PAGE.
# [4] = system: overall MHC-I presentation in E.G7-Ova cells; experiment: FACS analysis with citric acid wash; type: cell-based, mouse; conditions: 4 h treatment, recovery up to 4 h
# Procedure: (§1) E.G7-Ova cells (2 million/mL) were treated with compounds for 4 hours, washed with PBS, and then washed with 1 mL of 131 mM citric acid for 2 minutes, quenched with 1 mL 66 mM NaH2PO4, and then washed with PBS 3 times. Cells were then resuspended in warm RPMI and allowed to recover for the indicated period, after which cells were washed with PBS and transferred to 96 well plates for staining. Each well was washed with 200 μL PBS, and then stained for 20 minutes with 50 μL of staining solution: 1:1000 fixable near-IR LIVE/DEAD stain (Invitrogen) and 1:200 dilution of anti-SIINFEKL (BioLegend) or anti-Kb (BioLegend) antibody in FACS buffer (2% FBS in PBS supplemented with PenStrep and sterile filtered). Additional wells were used as unstained or singly-stained controls. After staining, cells were washed with PBS, then fixed in 200 μL 4% paraformaldehyde in PBS for 15 minutes. Cells were resuspended in 75 μL FACS buffer and analyzed on a Novocyte flow cytometer. The corresponding data in FIG. 2J are presented as the average percentage of median fluorescence intensity relative to DMSO treated control±SD from n=4 replicates. The corresponding data in FIG. 2K are presented as the average percentage of MFI relative to DMSO treated control±SD from n=3 replicates. Statistical analysis was performed using GraphPad PRISM Version 9.0.0.
# [5] = system: SIINFEKL presentation in E.G7-Ova cells; experiment: FACS analysis with citric acid wash; type: cell-based, mouse; conditions: 4 h treatment, recovery up to 4 h
# Procedure: as §1
# T1 sequence (Q06323 whole entry): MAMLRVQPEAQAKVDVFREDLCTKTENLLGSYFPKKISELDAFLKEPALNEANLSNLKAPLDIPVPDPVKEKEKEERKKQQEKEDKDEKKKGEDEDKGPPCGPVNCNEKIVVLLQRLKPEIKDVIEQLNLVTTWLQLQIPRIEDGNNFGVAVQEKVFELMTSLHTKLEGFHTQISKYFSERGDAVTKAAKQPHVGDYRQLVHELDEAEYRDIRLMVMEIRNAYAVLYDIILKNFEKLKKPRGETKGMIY
# T2 sequence (O75533 whole entry): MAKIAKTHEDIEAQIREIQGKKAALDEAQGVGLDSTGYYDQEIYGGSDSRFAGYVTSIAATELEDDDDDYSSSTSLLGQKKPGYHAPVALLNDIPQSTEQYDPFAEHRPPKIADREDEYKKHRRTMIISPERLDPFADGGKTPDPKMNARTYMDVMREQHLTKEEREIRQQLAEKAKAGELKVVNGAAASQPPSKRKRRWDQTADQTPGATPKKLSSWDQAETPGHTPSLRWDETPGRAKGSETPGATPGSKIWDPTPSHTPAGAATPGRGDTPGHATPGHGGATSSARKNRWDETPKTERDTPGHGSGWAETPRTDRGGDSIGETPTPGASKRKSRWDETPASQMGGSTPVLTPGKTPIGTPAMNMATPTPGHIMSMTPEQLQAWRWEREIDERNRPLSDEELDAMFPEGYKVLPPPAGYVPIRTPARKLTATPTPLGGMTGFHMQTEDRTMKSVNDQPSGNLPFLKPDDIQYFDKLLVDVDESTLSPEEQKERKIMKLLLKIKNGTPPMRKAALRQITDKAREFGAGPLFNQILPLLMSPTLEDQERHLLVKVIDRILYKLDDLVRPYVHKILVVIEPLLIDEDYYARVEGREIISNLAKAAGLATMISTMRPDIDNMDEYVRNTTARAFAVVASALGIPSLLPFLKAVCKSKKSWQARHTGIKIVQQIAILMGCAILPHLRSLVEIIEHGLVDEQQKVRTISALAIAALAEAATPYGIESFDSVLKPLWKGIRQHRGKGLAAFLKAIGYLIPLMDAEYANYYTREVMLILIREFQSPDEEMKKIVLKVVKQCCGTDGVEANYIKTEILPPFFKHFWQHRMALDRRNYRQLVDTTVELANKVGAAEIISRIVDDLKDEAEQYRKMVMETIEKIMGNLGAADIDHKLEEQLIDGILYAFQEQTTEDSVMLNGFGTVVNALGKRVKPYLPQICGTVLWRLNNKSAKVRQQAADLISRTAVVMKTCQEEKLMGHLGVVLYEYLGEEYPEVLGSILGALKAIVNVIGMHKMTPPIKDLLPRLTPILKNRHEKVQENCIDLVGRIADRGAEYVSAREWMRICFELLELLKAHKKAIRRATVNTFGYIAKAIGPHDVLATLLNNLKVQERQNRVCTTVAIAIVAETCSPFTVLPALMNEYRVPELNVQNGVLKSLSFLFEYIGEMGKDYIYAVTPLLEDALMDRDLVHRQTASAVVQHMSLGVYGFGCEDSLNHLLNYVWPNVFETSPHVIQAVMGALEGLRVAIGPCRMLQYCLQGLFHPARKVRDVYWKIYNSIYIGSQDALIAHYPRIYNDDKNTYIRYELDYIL
# T2 sequence (Q7RTV0 whole entry): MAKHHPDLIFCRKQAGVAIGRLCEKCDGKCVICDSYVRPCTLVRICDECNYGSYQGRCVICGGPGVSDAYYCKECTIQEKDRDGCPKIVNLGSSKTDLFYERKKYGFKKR
# T2 sequence (Q15393 whole entry partner): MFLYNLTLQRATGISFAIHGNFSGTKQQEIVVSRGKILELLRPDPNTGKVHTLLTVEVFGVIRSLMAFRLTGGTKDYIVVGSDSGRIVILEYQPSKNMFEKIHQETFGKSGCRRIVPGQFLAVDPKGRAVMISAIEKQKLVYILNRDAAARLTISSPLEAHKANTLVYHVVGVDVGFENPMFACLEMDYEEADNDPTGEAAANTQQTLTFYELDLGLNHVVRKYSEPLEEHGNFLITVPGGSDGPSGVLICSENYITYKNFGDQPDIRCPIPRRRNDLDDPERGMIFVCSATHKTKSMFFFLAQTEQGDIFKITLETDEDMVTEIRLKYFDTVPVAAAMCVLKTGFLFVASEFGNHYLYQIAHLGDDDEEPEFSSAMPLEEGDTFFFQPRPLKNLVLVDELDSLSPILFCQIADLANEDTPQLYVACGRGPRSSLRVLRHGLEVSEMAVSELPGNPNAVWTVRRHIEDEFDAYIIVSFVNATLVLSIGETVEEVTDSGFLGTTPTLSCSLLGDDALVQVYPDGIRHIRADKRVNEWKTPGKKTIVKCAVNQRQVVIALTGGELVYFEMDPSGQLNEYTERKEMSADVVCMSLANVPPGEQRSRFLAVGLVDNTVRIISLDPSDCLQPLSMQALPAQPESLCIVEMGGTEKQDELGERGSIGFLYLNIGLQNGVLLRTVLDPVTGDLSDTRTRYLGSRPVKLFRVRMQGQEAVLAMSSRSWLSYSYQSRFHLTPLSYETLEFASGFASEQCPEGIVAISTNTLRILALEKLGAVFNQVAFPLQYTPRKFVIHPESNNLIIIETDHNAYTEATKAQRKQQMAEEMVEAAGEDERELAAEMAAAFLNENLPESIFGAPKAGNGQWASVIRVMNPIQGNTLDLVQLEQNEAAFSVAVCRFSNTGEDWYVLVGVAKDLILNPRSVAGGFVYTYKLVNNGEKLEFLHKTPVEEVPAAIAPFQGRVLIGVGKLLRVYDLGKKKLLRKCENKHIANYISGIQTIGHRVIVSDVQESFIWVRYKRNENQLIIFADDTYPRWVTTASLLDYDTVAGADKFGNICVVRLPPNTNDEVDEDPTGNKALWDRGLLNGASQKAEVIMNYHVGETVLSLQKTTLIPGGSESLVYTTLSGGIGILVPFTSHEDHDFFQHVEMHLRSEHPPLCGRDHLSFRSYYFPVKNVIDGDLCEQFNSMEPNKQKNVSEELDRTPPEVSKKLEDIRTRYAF
# T2 sequence (Q9BWJ5 whole entry partner): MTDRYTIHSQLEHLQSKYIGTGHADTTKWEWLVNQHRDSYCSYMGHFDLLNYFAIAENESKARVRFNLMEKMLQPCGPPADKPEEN
compound,measurement,setting,value
pladienolide B [reference compound],anti-proliferative effect,22Rv1 cells,strong anti-proliferative activity
same,mRNA splicing changes,[1],induction of both intron retention and exon skipping events
same,SF3B1 interactions (DDX42 association),[2],"similar, but not identical reshaping of SF3B1 interactions"
same,p27 expression,p27,induced expression of p27
"C#Cc1ccc([C@H]2CN(C(=O)C=C)[C@H]2C(=O)Nc2cccc3cccnc23)cc1 [MY-11B, (2R,3S)-1-acryloyl-3-(4-ethynylphenyl)-N-(quinolin-8-yl)azetidine-2-carboxamide]","alkyne probe labeling of PSME1_C22 (CuAAC, azide-rhodamine)",[3],site-specific and stereoselective engagement
"C#CCOc1ccc2[nH]c3c(c2c1)C[C@@H](C(=O)OC)N(C(=O)C=C)[C@@H]3c1ccc2c(c1)OCO2 [WX-01-10, methyl (1R,3S)-2-acryloyl-1-(benzo[d][1,3]dioxol-5-yl)-6-(prop-2-yn-1-yloxy)-2,3,4,9-tetra-hydro-1H-pyrido[3,4-b]indole-3-carboxylate]",alkyne probe labeling of ~150 kDa protein,SF3B1 (~150 kDa protein),labeled an ˜150 kDa protein
"CC(C)C[C@@H](C=O)NC(=O)[C@H](CC(C)C)NC(=O)[C@H](CC(C)C)NC(=O)OCc1ccccc1 [MG132, reference compound] (Cbz-Leu-Leu-Leu-aldehyde)",overall MHC-I presentation after acid wash,[4],suppressed both SIINFEKL peptide and MHC-I presentation
same,SIINFEKL presentation after acid wash,[5],suppressed both SIINFEKL peptide and MHC-I presentation

# — patent publication US20250034216A1, “STEREOSELECTIVE COVALENT LIGANDS FOR ONCOGENIC AND IMMUNOLOGICAL PROTEINS” (The Scripps Research Institute, priority 2021, published 2025)
